From publication PMC6089189, “Targeting inhibitors of apoptosis proteins suppresses medulloblastoma cell proliferation via G2/M phase arrest and attenuated neddylation of p21” (Cancer Medicine, 2018)
Residues, ends and D or L forms follow the SMILES beside them. *: point of attachment. Cbz = O=C(OCc1ccccc1)*

Legend:
Type in all cases: cell-based
[1] = test system: p21; assay: Immunoblotting of p21 protein in MB cells; settings: DAOY and D283MED
Description: (§1) Antibody against XIAP, cIAP2, p21, or p53 was purchased from Cell Signaling Technology (Danvers, MA, USA); antibody for detection of cIAP1, cIAP1/2, p27, p16, GAPDH, cyclin A, or cyclin B1 was purchased from Santa Cruz Biotechnology (Dallas, TX, USA); antibodies against CDK1 and CDK2 were bought from Millipore (Burlington, MA, USA) and Upstate Biotechnology, respectively. The blotting membrane was developed using enhanced chemiluminescence (ECL) substrate (Millipore), and analyzed by densitometry and Image J (National Institutes of Health, USA).
(§2) Figure 4 IAPs Inhibition Increases the Protein Levels of p21, which are Governed by Proteasomal Degradation. A, DAOY and D283MED cells were incubated with LBW242 (10 μmol/L) for 0‐360 min. Total cell lysates were collected at different time points and then subjected to immunoblotting. B, The protein levels of cIAP1 and p21 were quantitated, normalized by the levels of GAPDH, and shown in the curve graphs. C, MB cells were transfected with siRNAs against cIAP1 or cIAP2, and nontargeting (NT) siRNA, and protein levels of cIAP1, cIAP2, and p21 were detected by immunoblotting. D, MB cells were treated with MG‐132, CHX, and MNL4924 to verify p21 protein degradation. The levels of p21 were analyzed by immunoblotting

[2] = test system: D283MED cells; assay: MTT cell viability assay, D283MED
Experimental: (§3) This assay was carried out using thiazolyl blue tetrazolium bromide (MTT; Sigma), as described in previous studies.12 Cell viability was calculated using the formula: (OD of experimental well/OD of control well) × 100%.
(§4) Figure 1 High Levels of IAPs in MB Cells Correspond to Sensitivity to IAP Inhibitors LBW242 or LCL161. A, The levels of IAPs and p21 in MB cell lines DAOY, D283MED and normal controls HA‐h and BJ were determined by immunoblotting. Their levels in MB cells were quantitated, normalized by GAPDH, presented in a bar graph, and compared to those in HA‐h cells. B, DAOY, D283MED, HA‐h, and BJ cell lines were treated with LBW242 or LCL161 at different concentrations (0, 5, 10, 20, and 40 μmol/L) and DMSO (control) for 72 h. Cell viability was determined by MTT assay. Data are represented as mean ± SEM of three independent experiments (*P < 0.05, **P < 0.01, and ***P < 0.005)

[3] = test system: D283MED cells; assay: Apoptosis by Annexin V/PI and FACS, D283MED; settings: Annexin V‐positive population by FACS
[4] = test system: BJ cells (normal fibroblast cell line); assay: MTT cell viability assay, BJ; settings: for IC50: BJ, MTT; for effect on BJ cell proliferation: 30 μmol/L, 72 h
Experimental: as §3, §4

[5] = test system: D283MED cells; assay: Cell cycle analysis (PI, FACS), D283MED; settings: siRNA with DMSO control, vincristine or cisplatin, Fig. S2
Experimental: (§5) MB cells were harvested following treatment with reagents. Cells were fixed with 70% ethanol, and then stored at −20°C overnight. Subsequent to equilibrating to room temperature, the cells were permeabilized with PBS containing 0.5% Triton X‐100 and 0.05% RNAse followed by staining with 50 μg/mL propidium iodide (PI; Sigma) at 4°C for 30 minutes. Finally, DNA content was detected by fluorescence‐activated cell sorting (FACS; Beckman Coulter Epics XL, Brea, CA, USA), and data were analyzed by EXPO32 ADC software (Beckman‐Coulter, USA).
(§6) A, MB cells were treated with DMSO (control), vincristine (1.25 nmol/L for DAOY and 2.5 nmol/L for D283MED), or cisplatin (0.31 μmol/L for DAOY and 0.625 μmol/L for D283MED), or in combination with LCL161 (10 μmol/L) or LBW242 (10 μmol/L) for 72 h. Thereafter, cells were harvested and their DNA contents were analyzed by FACS. B, The proportion of each cell cycle compartment was shown in bar graphs.

[6] = test system: DAOY cells; assay: MTT cell viability assay, DAOY
Experimental: as §3, §4

[7] = test system: DAOY cells; assay: Apoptosis by Annexin V/PI and FACS, DAOY; settings: Annexin V‐positive population by FACS
[8] = test system: HA‐h cells (human astrocyte‐hippocampal); assay: MTT cell viability assay, HA‐h; settings: for IC50: HA‐h, MTT; for effect on HA‐h cell proliferation: 30 μmol/L, 72 h
Experimental: as §3, §4

[9] = test system: DAOY cells; assay: Cell cycle analysis (PI, FACS), DAOY; settings: siRNA with DMSO control, vincristine or cisplatin, Fig. S2
Experimental: as §5, §6

[10] = test system: ubiquitination of p21; assay: Immunoprecipitation of p21, ubiquitination (Ub‐HA); settings: MB cells, in the presence of MG‐132 for 6 hours
Experimental: (§7) To observe ubiquitination or neddylation of p21, anti‐p21 antibody (Cell Signaling Technology) and Meg‐Beads‐Protein G (TOOLs) were added into total cell lysates collected from MB cells after transfected with plasmid overexpressing ubiquitin‐hemagglutinin (HA; Addgene, Cambridge, MA, USA) or NEDD8‐HA (Addgene) and treated with MG‐132 for 6 hours. Thereafter, immunoprecipitates were analyzed by immunoblotting with anti‐HA antibody (Sigma).
(§8) Figure 6 IAP Antagonist LBW242 Attenuates p21‐Interacted cIAP1 Expression and Neddylation of p21. A, To examine the ubiquitination of p21, MB cells were transfected with the plasmid carrying ubiquitin (Ub)‐HA and then treated with LBW242 combined with MG‐132 for 6 h. Total cell lysates were used for immunoprecipitation of p21, and subsequently applied to immunoblotting for detection of Ub‐HA, cIAP1, and cIAP2. B, To detect the neddylation of p21, MB cells were transfected with the plasmid overexpressing NEDD8‐HA, treated with MG‐132 and LBW242, and then subjected to immunoprecipitation. C, To examine whether cIAP1 dominates neddylation of p21, MB cells were co‐transfected with cIAP1 siRNA and NEDD8‐HA overexpressed plasmid, treated with MG‐132 for 6 h, and then applied to immunoprecipitation. D, DAOY cells were treated with MG‐132 for 6 h, and stained by immunofluorescence with anti‐cIAP1, anti‐cIAP2, and anti‐p21 antibodies. […]

[11] = test system: MB cells (DAOY and D283MED); assay: MTT cell viability / proliferation, stated for MB cells together; settings: 30 μmol/L, 72 h
Experimental: as §3, §4

[12] = test system: p21 RNA; assay: RT‐PCR analysis of p21 RNA in MB cells; settings: DAOY and D283MED
Description: Total RNA was extracted using trizole reagent (Easypure Total RNA Reagent) and converted into cDNA product using iScript cDNA Synthesis Kit (BIO‐RAD, Hercules, CA, USA). The cDNA product was mixed with PCR Master Mix reagent (Promega, Madison, WI, USA) and PCR primers, and then subjected to 1% agarose gel electrophoresis. The target gene expression was normalized by GAPDH. Primer sequences for p21 are 5′‐[…]‐3′ (forward) and 5′‐GGGCTTCCTCTTGGA‐GAAGAT‐3′ (reverse); primer sequences for cIAP1 are 5′‐[…]‐3′ (forward) and 5′‐[…]‐3′ (reverse); primer sequences for cIAP2 are 5′‐[…]‐3′ (forward) and 5′‐CAAGTAGATGAGGGTAA‐CTGGC‐3′ (reverse); primer sequences for GAPDH are 5′‐TGAAGGTCGGAGTCA‐ACGGATTTGGT‐3′ (forward) and 5′‐[…]‐3′ (reverse).

[13] = test system: cIAP1; assay: Immunoblotting of IAPs in MB cells, time course; settings: 10 μmol/L, in 60 minutes, DAOY and D283MED
Description: as §1, §2

[14] = test system: CDK1, CDK2, cyclin A and cyclin B1; assay: Immunoblotting of G2/M transition‐related proteins in MB cells; settings: 72 h
Description: as §1, §6

[15] = test system: neddylation of p21; assay: Immunoprecipitation of p21, neddylation (NEDD8‐HA); settings: MB cells, in the presence of MG‐132 for 6 hours
Experimental: as §7, §8

[16] = Homo sapiens, vincristine alone or with IAP inhibitor (10 μmol/L)
[17] = cisplatin 72 h, with or without siRNA transfection
[18] = cisplatin alone or with IAP inhibitor (10 μmol/L)

CC(C)C[C@@H](C=O)NC(=O)[C@H](CC(C)C)NC(=O)[C@H](CC(C)C)NC(=O)OCc1ccccc1 [MG‐132] (Cbz-Leu-Leu-Leu-aldehyde)
p21 protein expression [1]: accumulated in a time‐dependent manner

CC[C@]1(O)C[C@H]2CN(CCc3c([nH]c4ccccc34)[C@@](C(=O)OC)(c3cc4c(cc3OC)N(C=O)[C@H]3[C@@](O)(C(=O)OC)[C@H](OC(C)=O)[C@]5(CC)C=CCN6CC[C@]43[C@@H]65)C2)C1 [Vincristine]
IC50 ([2]; Homo sapiens, D283 Med, vincristine 72 h, with or without siRNA transfection): > 5 nM
IC50 ([2]; Homo sapiens, D283 Med, vincristine alone or with IAP inhibitor (10 μmol/L)): 5.7 ± 0.47 nM
Apoptosis (%) [3]: 34.4 ± 2.4%
IC50 ([4]; Homo sapiens, chemotherapeutic agent alone or with IAP inhibitor (10 μmol/L)): > 5 nM
G2/M (proportion of cells) [5]: 21.20%
IC50 ([6]; Homo sapiens, vincristine 72 h, with or without siRNA transfection): 3.47 ± 0.28 nM
IC50 [6, 16]: 5.5 ± 0.61 nM
Apoptosis (%) [7]: 6.0 ± 2.1%
IC50 [8, 16]: > 20 nM
G2/M (proportion of cells) [9]: 18.28%

NS(=O)(=O)OC[C@@H]1C[C@@H](n2ccc3c(N[C@H]4CCc5ccccc54)ncnc32)C[C@@H]1O [MLN4924]
p21 protein expression [1]: accumulated in a time‐dependent manner

C[C@@H]1C[C@@H]([C@H](O)CC2CC(=O)NC(=O)C2)C(=O)[C@@H](C)C1 [cycloheximide]
p21 protein expression [1]: decreased p21 protein levels after 30 minutes

CN[C@@H](C)C(=O)N[C@H](C(=O)N1CC[C@H]2CCN(CCc3ccccc3)C[C@H]21)C1CCCCC1 [LBW242]
ubiquitination of p21 [10]: no effect
Apoptosis (%) [3]: 20.1 ± 0.3%
effect on BJ cell proliferation [4]: only mildly slowed
inhibition of proliferation activities [11]: 50%
p21 transcriptional (RNA) levels [12]: does not affect p21 RNA levels
cIAP1 protein expression [13]: effectively inhibited cIAP1 rather than cIAP2 or XIAP expression
p21 protein expression [1]: enhances p21 expression
protein levels of CDK1, CDK2, cyclin A and cyclin B1 [14]: decreased
Apoptosis (%) [7]: 22.6 ± 1.2%
effect on HA‐h cell proliferation [8]: only mildly slowed
neddylation of p21 [15]: reduced neddylation of p21

CN[C@@H](C)C(=O)N[C@H](C(=O)N1CCC[C@H]1c1nc(C(=O)c2ccc(F)cc2)cs1)C1CCCCC1 [LCL161]
Apoptosis (%) [3]: 14.0 ± 0.4%
effect on BJ cell proliferation [4]: only mildly slowed
inhibition at 30 µM ([11]; read-out: inhibition of proliferation activities): 50%
protein levels of CDK1, CDK2, cyclin A and cyclin B1 [14]: decreased
Apoptosis (%) [7]: 17.2 ± 2.5%
effect on HA‐h cell proliferation [8]: only mildly slowed

N.N.[Cl][Pt][Cl] [Cisplatin, cisplatin]
IC50 [2, 17]: > 2500 nM
IC50 [2, 18]: 1200 ± 250 nM
Apoptosis (%) [3]: 55.3 ± 3.5%
IC50 [4, 18]: > 5000 nM
G2/M (proportion of cells) [5]: 19.10%
IC50 [6, 17]: 740 ± 60 nM
IC50 [6, 18]: 1800 ± 100 nM
Apoptosis (%) [7]: 13.3 ± 2.4%
IC50 [8, 18]: > 5000 nM
G2/M (proportion of cells) [9]: 16.70%
